According to publication PMC11784013, “Potassium molybdate blocks APN-dependent coronavirus entry by degrading receptor via PIK3C3-mediated autophagy” (Journal of Virology, 2024):

Legend:
APN = assay: Pathway inhibitor screen on PM-induced APN degradation in ST cells (western blot); type: cell-based, porcine; conditions: PM 10 mM, 16 h, 3-MA 20 mM
Protocol: Fig 6 PM degrades APN by autophagy-lysosome pathway. (A) ST cells were treated with PM (10 mM) and infected with TGEV (0.1 MOI) in the presence and absence of MG132 (20 µM), 3-MA (20 mM), and Z-VAD-FMK (20 µM) for 16 h. The APN expression and TGEV N were detected by western blot. (B) ST cells were treated with PM (10 mM) at 2, 4, 8, and 16 h, autophagy markers P62 and LC3, and APN were measured by western blot. (C) ST cells were transfected with RFP-EGFP-LC3B for 12 h and then treated with PM (10 mM) or H2O for 36 h. The fluorescence of GFP and RFP was detected by confocal microscopy, scale bar: 5 µm. (D) Quantification of autophagosomes (Merge) and autolysosomes (RFP) from C using Image J software. (E) ST cells were treated with PM or H2O for 24 h. The autophagosomes (yellow arrow) and autolysosomes (asterisk) were detected by transmission electron microscope, scale bar: 2 µm. (F) The number of autophagosomes (yellow arrow) and autolysosomes (asterisk) was quantified. All western blot results were calculated by Image J. Results are presented as mean ± SD of data from three independent experiments. ***, P ≤ 0.001.
Fig 7 PM degrades APN expression via activating PIK3C3-mediated autophagy. (A) Graphical representation for autophagy and the targets of different autophagy inhibitors. (B) ST cells were treated with PM (10 mM) in the presence and absence of 3-MA (20 mM), SBI0206965 (20 µM), and 3BDO (30 µM) for 16 h, and the APN expression was detected by western blot. (C) ST cells were treated with PM (10 mM) in the presence and absence of 3-MA (20 mM) for 16 h, and the APN, PIK3C3, ATG14, BECN1, P62, and LC3 were measured by western blot. (D) ST cells were transfected with PIK3C3 siRNA-1, PIK3C3 siRNA-2, PIK3C3 siRNA-3, PIK3C3 siRNA-4, and NC siRNA for 24 h, the PIK3C3 expression was detected by western blot. (E) ST cells were transfected with PIK3C3 siRNA-4 or NC siRNA for 24 h and then treated with PM (10 mM) for 16 h. The APN, PIK3C3, ATG14, BECN1, P62, and LC3 were detected by western blot. (F) Sequencing diagram for WT ST cells and PIK3C3 KO ST cells. (G) PIK3C3 was detected by western blot in WT ST cells and PIK3C3 KO ST cells. (H) WT ST cells and PIK3C3 KO ST cells were treated with PM (10 mM) for 16 h and then the APN, PIK3C3, ATG14, BECN1, P62, and LC3 were detected by western blot. (I) WT ST cells and PIK3C3 KO ST cells were transfected with pCMV-Myc and pCMV-Myc-PIK3C3, respectively, for 24 h and treated with PM (10 mM) for 16 h. The APN, PIK3C3, P62, and LC3 were detected by western blot. All western blot results were calculated by Image J. All experiments were performed in triplicate.

TGEV Miller = assay: TGEV infection of ST cells (RT-qPCR, TCID50, western blot, IFA); type: cell-based, transmissible gastroenteritis virus; conditions: TGEV Miller 0.1 MOI, indicated concentrations, 1 h pretreatment and 17 h
Protocol: Fig 1 PM inhibits TGEV and PRCV infection in ST cells. (A) A cytotoxicity assay of PM in ST cells. ST cells cultured in a 96-well plate were incubated with different concentrations of PM for 24 h, which was tested by Cell Counting Kit 8. (B) Time course for PM inhibiting TGEV or PRCV or PEDV infection assay. (C–F) The ST cells, pretreated with PM at the indicated concentrations for 1 h were infected with TGEV Miller (0.1 MOI) or PRCV (0.1 MOI) for 1 h and were again treated with PM at 37°C for 17 h. The cell samples were collected and examined by real-time quantitative PCR (RT-qPCR), TCID50, western blot (C and D), and immunofluorescence assay (IFA) (E and F), scale bar: 50 µm. (G) Vero-E6 cells were treated with indicated PM and infected with PEDV LJX 01/2014 according to the time course of Fig. 1B, which was detected by TCID50 and western blot. Results are presented as mean ± SD of data from three independent experiments. ns, no significant; **, P ≤ 0.01; ***, P ≤ 0.001.
Fig 3 PM inhibits TGEV and PRCV infection by potassium ion and molybdate synergy. […] The cell samples were measured by RT-qPCR. (C and D) ST cells were treated with PM (K2MoO4, 10 mM), KCl (20 mM), Na2MoO4 (10 mM), sodium chloride (NaCl, 10 mM), K2MoO4 (10 mM), and NaCl (20 mM) as well as Na2MoO4 (10 mM) and KCl (20 mM) for 1 h and then infected with TGEV Miller (0.1 MOI) or PRCV (0.1 MOI) for 17 h, which was determined by RT-qPCR and TCID50. […]
Total RNA was extracted using RNAiso reagent (TaKaRa, Japan, 9109) and reverse transcribed into cDNA using HiScript Q RT SuperMix for qPCR (Vazyme, China, R223-01), both of which followed the manufacturer’s recommendations. The TGEV and PRCV virus copy numbers were detected by the TaqMan probe-based RT-qPCR method developed previously in our laboratory ([59]). Relative qPCR was also performed using ChamQ SYBR qPCR master mix (Vazyme, China, Q311-02), and the results were calculated via the 2^-ΔΔCT method.

[1] = no virus, SBI0206965 20 µM, 3BDO 30 µM

Row | SMILES | reversal of PM-induced APN degradation (APN; [1]) | reversal of PM-induced APN degradation (APN; TGEV 0.1 MOI, MG132 20 µM, Z-VAD-FMK 20 µM) | TGEV infection, single salt (TGEV Miller)
1 | Cn1cnc(N)c2ncnc1-2 [3-MA, 3-Methyladenine] | reversed the changes in APN expression | reversed | –
2 | O=C1OC(COc2ccccc2[N+](=O)[O-])CC1Cc1ccccc1 (stereo not drawn) [3BDO] | cannot abolish the degradation of APN | – | –
3 | CNC(=O)c1ccccc1Oc1nc(Nc2cc(OC)c(OC)c(OC)c2)ncc1Br [SBI0206965] | cannot abolish the degradation of APN | – | –
4 | [Cl-].[K+] [potassium chloride] | – | – | neither potassium chloride nor sodium molybdate was able to suppress TGEV infection
5 | [Na+].[Na+].[O]=[Mo](=[O])([O-])[O-] [sodium molybdate] | – | – | neither potassium chloride nor sodium molybdate was able to suppress TGEV infection
